Key:
Test in all cases: relative viability (nuclei count vs DMSO), 5 days (fraction); higher = more cells survive
NCI-H1650 = system: NCI-H1650
Outline: (§1)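 For relative viability, nuclei counts in treated wells were divided by those in vehicle wells. Lung cancer cell lines had been pin-tool dosed in 1536-well plates the day after seeding and cultured for 5 days, then fixed and stained in one step (final 0.05% Triton X-100, 1% formaldehyde, 1 ug/ml Hoechst) and imaged at 4×. Doses were one drug alone or a fixed anchor-drug dose plus five library-drug doses (not always all listed) in √10 steps, and values are duplicate-plate medians.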

NCI-H441 = system: NCI-H441
Outline: as §1

PC-14 = system: PC-14
Outline: as §1

HARA = system: HARA
Outline: as §1

HOP-62 = system: HOP-62
Outline: as §1

HCC-78 = system: HCC-78
Outline: as §1

NCI-H661 = system: NCI-H661
Outline: as §1

NCI-H1437 = system: NCI-H1437
Outline: as §1

LXF-289 = system: LXF-289
Outline: as §1

NCI-H596 = system: NCI-H596
Outline: as §1

LCLC-97TM1 = system: LCLC-97TM1
Outline: as §1

NCI-H2087 = system: NCI-H2087
Outline: as §1

NCI-H1666 = system: NCI-H1666
Outline: as §1

NCI-H1944 = system: NCI-H1944
Outline: as §1

H3255 = system: H3255
Outline: as §1

NCI-H2085 = system: NCI-H2085
Outline: as §1

NCI-H2126 = system: NCI-H2126
Outline: as §1

ChaGo-K-1 = system: ChaGo-K-1
Outline: as §1

COR-L23 = system: COR-L23
Outline: as §1

NCI-H3122 = system: NCI-H3122
Outline: as §1

EPLC-272H = system: EPLC-272H
Outline: as §1

`Cc1csc(=NC2CCCCC2)n1/N=C/c1ccc(O)c(O)c1O` [MIM1] + C[C@@H](Oc1cc(-c2cnn(C3CCNCC3)c2)cnc1N)c1c(Cl)ccc(F)c1Cl [Crizotinib] (partner 1 µM) was tested, and the relative viability (NCI-H1650; first compound 0.2 µM) was 1.04, the relative viability (NCI-H1650; first compound 0.6325 µM) was 0.931 and the relative viability (NCI-H1650; first compound 2 µM) was 0.495. The relative viability (NCI-H1650; first compound 6.325 µM) was 0.47, the relative viability (NCI-H1650; first compound 20 µM) was 0.156 and the relative viability (NCI-H441; first compound 0.2 µM) was 0.835. The relative viability (NCI-H441; first compound 0.6325 µM) was 0.692, the relative viability (NCI-H441; first compound 2 µM) was 0.774 and the relative viability (NCI-H441; first compound 6.325 µM) was 0.433. For the same compound, the relative viability (NCI-H441; first compound 20 µM) was 0.222, the relative viability (PC-14; first compound 0.2 µM) was 0.854 and the relative viability (PC-14; first compound 0.6325 µM) was 0.839. For the same compound, the relative viability (PC-14; first compound 2 µM) was 0.873, the relative viability (PC-14; first compound 6.325 µM) was 0.728 and the relative viability (PC-14; first compound 20 µM) was 0.254. For the same compound, the relative viability (HARA; first compound 0.2 µM) was 1.06, the relative viability (HARA; first compound 0.6325 µM) was 1.13 and the relative viability (HARA; first compound 2 µM) was 1.08. For the same compound, the relative viability (HARA; first compound 6.325 µM) was 0.997, the relative viability (HARA; first compound 20 µM) was 0.138 and the relative viability (HOP-62; first compound 0.2 µM) was 0.927. It also gave a relative viability (HOP-62; first compound 0.6325 µM) of 0.914, a relative viability (HOP-62; first compound 2 µM) of 0.642 and a relative viability (HOP-62; first compound 6.325 µM) of 0.888. It also gave a relative viability (HOP-62; first compound 20 µM) of 0.0803, a relative viability (HCC-78; first compound 0.2 µM) of 0.322 and a relative viability (HCC-78; first compound 0.6325 µM) of 0.324. For the same compound, the relative viability (HCC-78; first compound 2 µM) was 0.309, the relative viability (HCC-78; first compound 6.325 µM) was 0.318 and the relative viability (HCC-78; first compound 20 µM) was 0.735. It also gave a relative viability (NCI-H661; first compound 0.2 µM) of 0.973, a relative viability (NCI-H661; first compound 0.6325 µM) of 0.953 and a relative viability (NCI-H661; first compound 2 µM) of 0.875. The relative viability (NCI-H661; first compound 6.325 µM) was 0.677, the relative viability (NCI-H661; first compound 20 µM) was 0.531 and the relative viability (NCI-H1437; first compound 0.2 µM) was 0.888. The relative viability (NCI-H1437; first compound 0.6325 µM) was 0.839, the relative viability (NCI-H1437; first compound 2 µM) was 0.864 and the relative viability (NCI-H1437; first compound 6.325 µM) was 0.559. For the same compound, the relative viability (NCI-H1437; first compound 20 µM) was 0.631, the relative viability (LXF-289; first compound 0.2 µM) was 0.806 and the relative viability (LXF-289; first compound 0.6325 µM) was 0.732. For the same compound, the relative viability (LXF-289; first compound 2 µM) was 0.833, the relative viability (LXF-289; first compound 6.325 µM) was 0.655 and the relative viability (LXF-289; first compound 20 µM) was 0.388. It also gave a relative viability (NCI-H596; first compound 0.2 µM) of 0.965, a relative viability (NCI-H596; first compound 0.6325 µM) of 1.11 and a relative viability (NCI-H596; first compound 2 µM) of 0.832. For the same compound, the relative viability (NCI-H596; first compound 6.325 µM) was 0.921, the relative viability (NCI-H596; first compound 20 µM) was 0.741 and the relative viability (LCLC-97TM1; first compound 0.2 µM) was 0.327. For the same compound, the relative viability (LCLC-97TM1; first compound 0.6325 µM) was 0.38, the relative viability (LCLC-97TM1; first compound 2 µM) was 0.441 and the relative viability (LCLC-97TM1; first compound 6.325 µM) was 0.214. For the same compound, the relative viability (LCLC-97TM1; first compound 20 µM) was 0.12, the relative viability (NCI-H2087; first compound 0.2 µM) was 0.772 and the relative viability (NCI-H2087; first compound 0.6325 µM) was 0.934. It also gave a relative viability (NCI-H2087; first compound 2 µM) of 0.838, a relative viability (NCI-H2087; first compound 6.325 µM) of 0.739 and a relative viability (NCI-H2087; first compound 20 µM) of 0.766. It also gave a relative viability (NCI-H1666; first compound 0.2 µM) of 0.926, a relative viability (NCI-H1666; first compound 0.6325 µM) of 0.92 and a relative viability (NCI-H1666; first compound 2 µM) of 0.958. It also gave a relative viability (NCI-H1666; first compound 6.325 µM) of 0.663, a relative viability (NCI-H1666; first compound 20 µM) of 0.238 and a relative viability (NCI-H1944; first compound 0.2 µM) of 1.11. It also gave a relative viability (NCI-H1944; first compound 0.6325 µM) of 1.09, a relative viability (NCI-H1944; first compound 2 µM) of 0.754 and a relative viability (NCI-H1944; first compound 6.325 µM) of 0.811. The relative viability (NCI-H1944; first compound 20 µM) was 0.323, the relative viability (H3255; first compound 0.2 µM) was 0.911 and the relative viability (H3255; first compound 0.6325 µM) was 0.847. For the same compound, the relative viability (H3255; first compound 2 µM) was 0.774, the relative viability (H3255; first compound 6.325 µM) was 0.629 and the relative viability (H3255; first compound 20 µM) was 0.435. It also gave a relative viability (NCI-H2085; first compound 0.2 µM) of 0.851, a relative viability (NCI-H2085; first compound 0.6325 µM) of 0.85 and a relative viability (NCI-H2085; first compound 2 µM) of 0.761. It also gave a relative viability (NCI-H2085; first compound 6.325 µM) of 0.825, a relative viability (NCI-H2085; first compound 20 µM) of 0.847 and a relative viability (NCI-H2126; first compound 0.2 µM) of 1.05. The relative viability (NCI-H2126; first compound 0.6325 µM) was 1.05, the relative viability (NCI-H2126; first compound 2 µM) was 1.03 and the relative viability (NCI-H2126; first compound 6.325 µM) was 0.963. It also gave a relative viability (NCI-H2126; first compound 20 µM) of 0.659, a relative viability (ChaGo-K-1; first compound 0.2 µM) of 1.07 and a relative viability (ChaGo-K-1; first compound 0.6325 µM) of 1.13. It also gave a relative viability (ChaGo-K-1; first compound 2 µM) of 0.953, a relative viability (ChaGo-K-1; first compound 6.325 µM) of 0.835 and a relative viability (ChaGo-K-1; first compound 20 µM) of 0.285. For the same compound, the relative viability (COR-L23; first compound 0.2 µM) was 0.571, the relative viability (COR-L23; first compound 0.6325 µM) was 0.621 and the relative viability (COR-L23; first compound 2 µM) was 0.657. For the same compound, the relative viability (COR-L23; first compound 6.325 µM) was 0.461, the relative viability (COR-L23; first compound 20 µM) was 0.372 and the relative viability (NCI-H3122; first compound 0.2 µM) was 0.272. For the same compound, the relative viability (NCI-H3122; first compound 0.6325 µM) was 0.251, the relative viability (NCI-H3122; first compound 2 µM) was 0.32 and the relative viability (NCI-H3122; first compound 6.325 µM) was 0.294. The relative viability (NCI-H3122; first compound 20 µM) was 0.204, the relative viability (EPLC-272H; first compound 0.2 µM) was 0.911 and the relative viability (EPLC-272H; first compound 0.6325 µM) was 0.925. For the same compound, the relative viability (EPLC-272H; first compound 2 µM) was 0.901, the relative viability (EPLC-272H; first compound 6.325 µM) was 0.666 and the relative viability (EPLC-272H; first compound 20 µM) was 0.278.
